Test [1] is described as follows: Displacement of [3H]DTG from sigma2 receptor in rat PC12 cells measured after 90 mins by microbeta scintillation counting method. In kind it is cell-based. To be noted: pc-12.
Test [2] concerns the target Muscarinic acetylcholine receptor M5 (Homo sapiens, UniProt P08912). Description: Binding affinity to human M5 receptor expressed in CHO cells measured after 90 mins by radioligand binding assay. Type of test: cell-based.
Test [3] addresses Histamine H2 receptor (Homo sapiens, UniProt P25021). As to the kind of experiment: Binding affinity to H2 receptor (unknown origin) expressed in HEKT cells measured after 90 mins by radioligand binding assay. In kind it is cell-based.
Test [4] concerns the target Alpha-2B adrenergic receptor (Homo sapiens, UniProt P18089). Description: Displacement of [3H]Rauwolscine from human Alpha2B receptor expressed in HEK-T cells measured after 90 mins by microbeta scintillation counting method. In kind it is cell-based.
For test [5], the target named is Alpha-2A adrenergic receptor (Homo sapiens) (UniProt P08913). To be noted: MDCK, 10 uM.
The target in test [6] is 5-hydroxytryptamine receptor 6 (Homo sapiens, UniProt P50406). As to the kind of experiment: Displacement of [3H]LSD from human 5-HT6 receptor expressed in HEK cells measured after 90 mins by microbeta scintillation counting method. In kind it is cell-based, HEK293. (In general: In a radioligand displacement assay an active substance lowers the binding of a labelled ligand.)
5-hydroxytryptamine receptor 6, sequence (P50406 whole entry): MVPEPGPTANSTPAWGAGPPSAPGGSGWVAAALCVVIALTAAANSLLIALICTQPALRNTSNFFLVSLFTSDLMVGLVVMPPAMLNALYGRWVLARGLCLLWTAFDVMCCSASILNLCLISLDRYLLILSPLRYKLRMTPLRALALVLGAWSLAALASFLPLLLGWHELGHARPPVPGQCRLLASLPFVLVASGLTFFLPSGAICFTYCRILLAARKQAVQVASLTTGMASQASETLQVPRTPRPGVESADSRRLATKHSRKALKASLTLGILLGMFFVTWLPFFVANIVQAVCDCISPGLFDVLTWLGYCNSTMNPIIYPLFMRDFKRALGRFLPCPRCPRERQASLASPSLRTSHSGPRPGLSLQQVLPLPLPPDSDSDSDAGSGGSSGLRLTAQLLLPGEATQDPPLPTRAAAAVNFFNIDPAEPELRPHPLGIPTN

The target in test [7] is T1, Mu-type opioid receptor (Homo sapiens, UniProt P35372). As to conditions: HEK293, 10 uM.
T1 sequence (P35372 whole entry): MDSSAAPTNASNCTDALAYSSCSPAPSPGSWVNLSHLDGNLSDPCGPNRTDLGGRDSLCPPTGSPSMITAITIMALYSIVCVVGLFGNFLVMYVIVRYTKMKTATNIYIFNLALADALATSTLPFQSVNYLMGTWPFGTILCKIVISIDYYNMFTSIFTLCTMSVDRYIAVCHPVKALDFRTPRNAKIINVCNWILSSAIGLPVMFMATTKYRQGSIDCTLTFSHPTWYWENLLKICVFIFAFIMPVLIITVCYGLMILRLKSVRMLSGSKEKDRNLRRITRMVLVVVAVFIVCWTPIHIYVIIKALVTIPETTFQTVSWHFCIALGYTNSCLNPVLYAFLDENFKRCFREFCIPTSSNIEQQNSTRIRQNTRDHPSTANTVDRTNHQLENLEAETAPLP
Test [8] deals with D(4) dopamine receptor (Homo sapiens, UniProt P21917). Description: Displacement of [3H]N-methylspiperone from human D4 receptor measured after 90 mins by microbeta scintillation counting method.
D(4) dopamine receptor, sequence (P21917 whole entry): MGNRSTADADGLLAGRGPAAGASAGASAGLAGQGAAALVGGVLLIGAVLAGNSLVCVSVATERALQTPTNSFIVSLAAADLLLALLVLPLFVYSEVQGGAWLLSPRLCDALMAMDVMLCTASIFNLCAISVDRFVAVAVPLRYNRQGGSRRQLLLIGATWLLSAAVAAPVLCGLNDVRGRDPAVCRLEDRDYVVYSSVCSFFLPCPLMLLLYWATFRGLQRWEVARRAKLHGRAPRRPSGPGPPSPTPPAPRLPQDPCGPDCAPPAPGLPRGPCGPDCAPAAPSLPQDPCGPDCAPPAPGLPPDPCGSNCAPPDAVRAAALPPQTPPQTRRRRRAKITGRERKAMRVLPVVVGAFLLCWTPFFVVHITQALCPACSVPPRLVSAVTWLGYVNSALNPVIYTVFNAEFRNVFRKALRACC
Test [9] in a line: Displacement of [3H]Muscimol from GABAA receptor in rat brain measured after 90 mins by microbeta scintillation counting method. Type of test: tissue-based.
In test [10] the target is T2, Kappa-type opioid receptor (Homo sapiens, UniProt P41145). Description: Displacement of [3H]U69593 from KOR (unknown origin) expressed in HEKT cells measured after 90 mins by microbeta scintillation counting method. Type of test: cell-based.
T2 sequence (P41145 whole entry): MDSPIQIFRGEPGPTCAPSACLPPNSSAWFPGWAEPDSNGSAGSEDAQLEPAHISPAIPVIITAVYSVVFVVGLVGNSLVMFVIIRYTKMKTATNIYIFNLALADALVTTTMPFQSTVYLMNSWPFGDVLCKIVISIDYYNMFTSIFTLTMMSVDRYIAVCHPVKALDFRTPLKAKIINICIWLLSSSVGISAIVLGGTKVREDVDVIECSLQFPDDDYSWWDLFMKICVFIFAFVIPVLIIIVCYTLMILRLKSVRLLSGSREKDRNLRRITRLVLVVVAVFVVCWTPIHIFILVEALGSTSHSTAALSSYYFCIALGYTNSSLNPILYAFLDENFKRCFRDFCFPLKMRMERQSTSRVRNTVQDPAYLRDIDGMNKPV
Test [11] deals with Histamine H4 receptor (Homo sapiens, UniProt Q9H3N8). As to the kind of experiment: Displacement of [3H]Histamine from H4 receptor (unknown origin) measured after 90 mins by microbeta scintillation counting method.
Histamine H4 receptor, sequence (Q9H3N8 whole entry): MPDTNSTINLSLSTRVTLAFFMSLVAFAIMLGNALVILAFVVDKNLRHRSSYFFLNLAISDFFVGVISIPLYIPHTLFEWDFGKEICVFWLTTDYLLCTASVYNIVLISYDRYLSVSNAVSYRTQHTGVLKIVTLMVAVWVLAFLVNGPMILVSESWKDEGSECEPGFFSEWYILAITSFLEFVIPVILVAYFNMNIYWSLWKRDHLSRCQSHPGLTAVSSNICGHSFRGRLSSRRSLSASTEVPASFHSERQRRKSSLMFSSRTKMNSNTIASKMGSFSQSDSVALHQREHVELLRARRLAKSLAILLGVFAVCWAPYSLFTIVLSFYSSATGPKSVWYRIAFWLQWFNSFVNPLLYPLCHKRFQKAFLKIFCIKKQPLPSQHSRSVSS
In test [12] the target is D(2) dopamine receptor (Homo sapiens, UniProt P14416). Description: Displacement of [3H]N-methylspiperone from human D2 receptor expressed in fibroblast cells measured after 90 mins by microbeta scintillation counting method. Type of test: cell-based.
D(2) dopamine receptor, sequence (P14416 whole entry): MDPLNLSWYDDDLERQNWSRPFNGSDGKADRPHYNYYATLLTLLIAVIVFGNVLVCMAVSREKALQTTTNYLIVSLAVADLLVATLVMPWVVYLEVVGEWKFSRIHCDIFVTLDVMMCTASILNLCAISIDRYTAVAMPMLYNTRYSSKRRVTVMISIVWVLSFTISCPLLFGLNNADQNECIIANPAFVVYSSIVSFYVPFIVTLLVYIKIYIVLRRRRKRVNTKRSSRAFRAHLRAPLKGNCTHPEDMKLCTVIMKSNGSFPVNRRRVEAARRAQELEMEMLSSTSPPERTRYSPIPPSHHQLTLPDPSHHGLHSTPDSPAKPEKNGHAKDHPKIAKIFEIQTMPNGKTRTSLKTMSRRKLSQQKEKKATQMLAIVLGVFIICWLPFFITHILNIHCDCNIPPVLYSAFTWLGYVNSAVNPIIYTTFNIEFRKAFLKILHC
Test [13] deals with Alpha-1A adrenergic receptor (Homo sapiens, UniProt P35348). Description: Displacement of [3H]Prazosin from human Alpha1A receptor measured after 90 mins by microbeta scintillation counting method.
Alpha-1A adrenergic receptor, sequence (P35348 whole entry): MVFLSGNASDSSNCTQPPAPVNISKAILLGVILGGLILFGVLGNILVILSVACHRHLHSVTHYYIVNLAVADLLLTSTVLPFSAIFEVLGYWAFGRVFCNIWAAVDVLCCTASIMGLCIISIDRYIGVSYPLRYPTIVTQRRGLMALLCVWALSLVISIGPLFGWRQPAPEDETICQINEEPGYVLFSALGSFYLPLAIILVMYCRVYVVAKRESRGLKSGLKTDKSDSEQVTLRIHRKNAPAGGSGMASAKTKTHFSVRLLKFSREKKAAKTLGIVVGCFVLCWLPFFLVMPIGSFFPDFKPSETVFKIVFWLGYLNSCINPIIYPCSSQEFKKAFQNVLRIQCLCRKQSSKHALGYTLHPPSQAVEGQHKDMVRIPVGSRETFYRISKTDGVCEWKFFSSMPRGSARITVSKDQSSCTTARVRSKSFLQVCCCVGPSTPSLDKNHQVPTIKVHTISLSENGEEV
Test [14] addresses Sodium-dependent serotonin transporter (Homo sapiens, UniProt P31645). As to the kind of experiment: Displacement of [3H]Citalopram from human SERT expressed in HEK cells measured after 90 mins by microbeta scintillation counting method. In kind it is cell-based, HEK293.
Test [15] relates to PC-12. To be noted: Rattus norvegicus, 10 uM.
Test [16] has as its system PC-12. As to the kind of experiment: Selectivity ratio of Ki for guinea pig sigma1 receptor to Ki for sigma2 receptor in rat PC12 cells. Type of test: cell-based.
The target in test [17] is T2, Kappa-type opioid receptor. To be noted: HEKT, 10 uM.
Test [18] deals with T1, Mu-type opioid receptor. As to the kind of experiment: Displacement of [3H]DAMGO from human MOR expressed in HEK cells after 90 mins by microbeta scintillation counting method. In kind it is cell-based, HEK293.
Test [19] concerns the target Alpha-2C adrenergic receptor (Homo sapiens, UniProt P18825). As to the kind of experiment: Displacement of [3H]Rauwolscine from human Alpha2C receptor expressed in MDCK cells measured after 90 mins by microbeta scintillation counting method. Type of test: cell-based.
For test [20], the target named is Alpha-2B adrenergic receptor (Homo sapiens) (UniProt P18089). As to conditions: HEK-T, 10 uM.
For test [21], the target named is Alpha-2C adrenergic receptor (Homo sapiens) (UniProt P18825). To be noted: MDCK, 10 uM.
The target in test [22] is Muscarinic acetylcholine receptor M5 (Homo sapiens) (UniProt P08912). As to the kind of experiment: Binding affinity to human M5 receptor expressed in CHO cells at 10 uM measured after 90 mins by radioligand binding assay relative to control. In kind it is cell-based.
Muscarinic acetylcholine receptor M5 (Homo sapiens), sequence (P08912 whole entry): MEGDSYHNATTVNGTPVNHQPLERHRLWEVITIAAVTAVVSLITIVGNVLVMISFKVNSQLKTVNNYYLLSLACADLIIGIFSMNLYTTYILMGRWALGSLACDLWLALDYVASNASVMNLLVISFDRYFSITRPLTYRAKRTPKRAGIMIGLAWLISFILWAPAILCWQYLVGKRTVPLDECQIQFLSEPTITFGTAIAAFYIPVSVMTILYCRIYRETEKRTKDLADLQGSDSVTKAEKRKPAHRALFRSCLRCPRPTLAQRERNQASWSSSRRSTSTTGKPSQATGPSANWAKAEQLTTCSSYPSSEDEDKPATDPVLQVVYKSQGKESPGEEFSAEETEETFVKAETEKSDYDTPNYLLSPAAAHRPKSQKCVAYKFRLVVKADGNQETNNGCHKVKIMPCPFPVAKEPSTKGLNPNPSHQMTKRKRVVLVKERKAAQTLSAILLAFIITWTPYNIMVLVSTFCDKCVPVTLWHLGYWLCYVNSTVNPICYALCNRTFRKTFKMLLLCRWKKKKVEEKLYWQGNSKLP
Test [23] has as its target Sodium-dependent dopamine transporter (Homo sapiens, UniProt Q01959). As to conditions: HEK293, 10 uM.
The target of test [24] is Histamine H3 receptor (Homo sapiens, UniProt Q9Y5N1). As to conditions: HEK293, 10 uM.
For test [25], the target named is 5-hydroxytryptamine receptor 2C (Homo sapiens) (UniProt P28335). To be noted: HEK293, 10 uM.
The target in test [26] is Muscarinic acetylcholine receptor M3 (Homo sapiens, UniProt P20309). As to the kind of experiment: Binding affinity to human M3 receptor expressed in CHO cells at 10 uM measured after 90 mins by radioligand binding assay relative to control. In kind it is cell-based.
The target of test [27] is 5-hydroxytryptamine receptor 2B (Homo sapiens, UniProt P41595). To be noted: HEK293, 10 uM.

We go through two compounds from ChEMBL document CHEMBL3868615, “Decahydrobenzoquinolin-5-one sigma receptor ligands: Divergent development of both sigma 1 and sigma 2 receptor selective examples” (Bioorg Med Chem Lett, 2016).

Bounds are passed on as bounds.

A word on the Ki: it is the equilibrium dissociation constant of an inhibitor or competing ligand from its target. Read a high Ki as weaker binding. For orientation: inhibition means how much of the control response was suppressed. Low values mean little suppression, high ones strong suppression.

Histamine H2 receptor, sequence (P25021 whole entry): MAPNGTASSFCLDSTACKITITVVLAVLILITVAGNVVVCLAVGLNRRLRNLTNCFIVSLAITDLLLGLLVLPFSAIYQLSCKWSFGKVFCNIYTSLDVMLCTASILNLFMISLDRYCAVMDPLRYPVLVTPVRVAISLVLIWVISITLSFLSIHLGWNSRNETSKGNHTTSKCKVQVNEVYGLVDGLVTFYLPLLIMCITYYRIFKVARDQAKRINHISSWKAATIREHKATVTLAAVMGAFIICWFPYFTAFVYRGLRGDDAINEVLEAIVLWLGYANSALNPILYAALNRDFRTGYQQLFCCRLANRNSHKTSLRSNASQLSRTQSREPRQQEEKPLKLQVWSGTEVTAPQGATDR
Muscarinic acetylcholine receptor M5, sequence (P08912 whole entry): as the sequence (P08912 whole entry) above
Alpha-2B adrenergic receptor, sequence (P18089 whole entry): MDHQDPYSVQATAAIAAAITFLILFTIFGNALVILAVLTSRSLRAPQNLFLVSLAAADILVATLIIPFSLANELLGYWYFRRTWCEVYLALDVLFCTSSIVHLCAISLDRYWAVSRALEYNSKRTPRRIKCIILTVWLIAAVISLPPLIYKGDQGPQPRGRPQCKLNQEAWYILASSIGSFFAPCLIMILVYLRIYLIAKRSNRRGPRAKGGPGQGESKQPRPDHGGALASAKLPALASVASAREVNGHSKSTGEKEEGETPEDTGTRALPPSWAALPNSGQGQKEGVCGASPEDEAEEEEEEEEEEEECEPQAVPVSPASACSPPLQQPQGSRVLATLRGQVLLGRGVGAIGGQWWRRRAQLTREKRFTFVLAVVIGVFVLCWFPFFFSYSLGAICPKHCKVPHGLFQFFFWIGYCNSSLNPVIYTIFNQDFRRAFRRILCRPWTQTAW
Sodium-dependent serotonin transporter, sequence (P31645 whole entry): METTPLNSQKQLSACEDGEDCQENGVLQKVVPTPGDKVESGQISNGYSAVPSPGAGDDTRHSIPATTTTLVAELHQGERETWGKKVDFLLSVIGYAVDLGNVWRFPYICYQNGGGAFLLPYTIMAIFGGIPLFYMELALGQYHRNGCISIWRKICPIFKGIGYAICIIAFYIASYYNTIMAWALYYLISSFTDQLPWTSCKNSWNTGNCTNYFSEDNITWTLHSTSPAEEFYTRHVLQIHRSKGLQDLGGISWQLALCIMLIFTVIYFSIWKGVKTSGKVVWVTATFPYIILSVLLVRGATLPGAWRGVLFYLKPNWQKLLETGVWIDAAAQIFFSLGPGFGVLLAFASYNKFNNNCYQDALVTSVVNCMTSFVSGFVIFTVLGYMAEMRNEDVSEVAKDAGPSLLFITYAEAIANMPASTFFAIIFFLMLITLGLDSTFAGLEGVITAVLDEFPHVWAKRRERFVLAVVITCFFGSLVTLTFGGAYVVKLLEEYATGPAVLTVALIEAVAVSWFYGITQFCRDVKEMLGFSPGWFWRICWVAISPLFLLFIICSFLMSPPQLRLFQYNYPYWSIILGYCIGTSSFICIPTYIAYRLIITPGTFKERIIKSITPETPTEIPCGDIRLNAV

In the case of `CCCN1CC[C@H]2c3cc4ccc(C(F)(F)F)cc4nc3[C@H](CC)[C@H]3CCC[C@@H]1[C@@H]32`, the Ki in test [1] was 0.015 µM; in test [2], greater than 10 µM; in [3], greater than 10 µM; in test [4], 1.04 µM; in test [6], greater than 10 µM; in test [8] it was greater than 10 µM. Besides, the Ki was greater than 10 µM in [9]; 0.416 µM in [10]; greater than 10 µM in [11]; greater than 10 µM in test [12]; greater than 10 µM in [13]; greater than 10 µM in [14]. In addition, the figures for the inhibition constant (Ki) in test [18] and in [19] were 2.36 µM and 1.04 µM, respectively. In addition, the inhibition in [5], in test [7], in [15], in test [17], in test [20] and in [21] was greater than 50% each time. In addition, in test [16], the Ratio Ki was 28.

Regarding `CN1CC[C@H]2CC(=O)[C@H](Cc3ccccc3)[C@H]3CCC[C@@H]1[C@H]23`, the Ki in [1] is 0.148 µM; in test [2], 3.49 µM; in [3], greater than 10 µM; in test [4], greater than 10 µM; in test [6] it was greater than 10 µM; in [8], greater than 10 µM. The inhibition constant (Ki) in test [9], in test [10], in test [11], in [12], in test [13] and in test [14] was greater than 10 µM each time. The Ki in [18] and in test [19] was greater than 10 µM each time. Also, the Activity in test [22] and in test [26] was greater than 50% throughout. For the same compound, the inhibition in test [23], in test [24], in test [25], in test [15] and in [27] was greater than 50% throughout.
